The results in this text go back to patent publication US11274118B2 (priority 2012, dated 2022).

One data set in a line: physchem. Particulars: kinetic from dmso stock.
Another data set concerns Primary cortical cells. Kind of data set: Reduction of neuronal cell death after a glutamate challenge (MTT / LDH release). Particulars: for inhibition at 5 µM: 24 h, read-out: reduction in cell death at a 5 μM dose; for dose at maximum efficacy: glutamate challenge, primary cortical cells; for Emax: read-out: maximum efficacy, reduction in cell death. Type of data set: cell-based.

≈ marks a conversion by molar mass, not a printed value.

Regarding `CC(=O)O/N=C(\C)[C@H]1CC[C@H]2[C@@H]3CCC4=CC(=O)CC[C@]4(C)[C@H]3CC[C@]12C` [Compound 6, (8 S,9S,10R,13S,14S,17S)-17-((E)-1-(acetoxyimino)ethyl)-10,13-dimethyl-6,7,8,9,10,11,12,13,14,15,16,17-dodecahydro-1H-cyclopenta[a]phenanthren-3(2H)-one], the solubility at 90 min in the data set “physchem” (pH 4, aqueous buffer) is 180 µM (≈ 66.9 µg/mL); in the data set “physchem” (pH 7, aqueous buffer) it was 100 µM (≈ 37.2 µg/mL).

`C/C(=N\OC(=O)[C@@H]1CCCN1)[C@H]1CC[C@H]2[C@@H]3CCC4=CC(=O)CC[C@]4(C)[C@H]3CC[C@]12C.Cl` [Compound 8, (8S,9S,10R,13S,14S,17S)-10,13-Dimethyl-17-((E)-1-((S)-pyrrolidine-2-carbonyloxyimino)ethyl)-6,7,8,9,10,11,12,13,14,15,16,17-dodecahydro-1H-cyclopenta[a]phenanthren-3(2H)-one Hydrochloride]: in the data set with Primary cortical cells, the inhibition at 5 µM is 21%, the “dose at maximum efficacy” value stood at 10 µM and the Emax came to 33%. In addition, the solubility at 90 min in “physchem” (pH 4, aqueous buffer) was determined as 395 µM. The compound also returned a solubility at 90 min in the data set “physchem” (pH 7, aqueous buffer) of 34 µM.

For the compound `C/C(=N\OC(=O)C[N+](C)(C)C)[C@H]1CC[C@H]2[C@@H]3CCC4=CC(=O)CC[C@]4(C)[C@H]3CC[C@]12C.[I-]` [Compound 11, (8S,9S,10R,13S,14S,17S)-17-((E)-1-(2-(triimethylamino)acetoxyimino)ethyl)-10,13-dimethyl-6,7,8,9,10,11,12,13,14,15,16,17-dodecahydro-1H-cyclopenta[a]phenanthren-3(2H)-one Iodide], the solubility at 90 min in “physchem” (pH 4, aqueous buffer) is over 540 µM; in “physchem” (pH 7, aqueous buffer), 45 µM.

As for `C/C(=N\OC(=O)CN1CCOCC1)[C@H]1CC[C@H]2[C@@H]3CCC4=CC(=O)CC[C@]4(C)[C@H]3CC[C@]12C` [Compound 12, (8S,9S,10R,13S,14S,17S)-10,13-Dimethyl-17-((E)-1-(2-morpholinoacetoxyimino)ethyl)-6,7,8,9,10,11,12,13,14,15,16,17-dodecahydro-1H-cyclopenta[a]phenanthren-3(2H)-one], the solubility at 90 min in “physchem” (pH 4, aqueous buffer) was determined as 215 µM (≈ 98.2 µg/mL); in “physchem” (pH 7, aqueous buffer), 215 µM (≈ 98.2 µg/mL).

For `C/C(=N\OC(=O)c1cccnc1)[C@H]1CC[C@H]2[C@@H]3CCC4=CC(=O)CC[C@]4(C)[C@H]3CC[C@]12C` [Compound 14], in the data set on Primary cortical cells, the inhibition at 5 µM was 20%, the “dose at maximum efficacy” value stood at 5 µM and the Emax stood at 20%. The solubility at 90 min in “physchem” (pH 4, aqueous buffer) was under 35 µM. The solubility at 90 min in the data set “physchem” (pH 7, aqueous buffer) is under 35 µM.

On to `C/C(=N\OC(=O)c1ccc[n+](C)c1)[C@H]1CC[C@H]2[C@@H]3CCC4=CC(=O)CC[C@]4(C)[C@H]3CC[C@]12C.[I-]` [Compound 15, 3-(((E)-1-((8S,9S,10R,13S,14S,17S)-10,13-Dimethyl-3-oxo-2,3,6,7,8,9,10,11,12,13,14,15,16,17-tetradecahydro-1H-cyclopenta[a]phenanthren-17-yl)ethylideneaminooxy)carbonyl)-1-methylpyridinium iodide], for which, in the data set with Primary cortical cells, the inhibition at 5 µM came to 0%, the “dose at maximum efficacy” value turned out to be 1 µM and the Emax came to 14%. The solubility at 90 min in “physchem” (pH 4, aqueous buffer) came out at 349 µM. The compound further returned a solubility at 90 min in the data set “physchem” (pH 7, aqueous buffer) of 212 µM.

In the case of `C/C(=N\OC(=O)c1ccc(CN)cc1)[C@H]1CC[C@H]2[C@@H]3CCC4=CC(=O)CC[C@]4(C)[C@H]3CC[C@]12C.Cl` [Compound 16, (8S,9S,10R,13S,14S,17S)-17-((E)-1-(4-(aminomethyl)benzoyloxyimino)ethyl)-10,13-dimethyl-6,7,8,9,10,11,12,13,14,15,16,17-dodecahydro-1H-cyclopenta[a]phenanthren-3 (2H)-one], the solubility at 90 min in “physchem” (pH 4, aqueous buffer) was under 30 µM; in the data set “physchem” (pH 7, aqueous buffer), under 30 µM.

For the compound `C/C(=N\OC(=O)c1ccc(CN2CCN(C)CC2)cc1)[C@H]1CC[C@H]2[C@@H]3CCC4=CC(=O)CC[C@]4(C)[C@H]3CC[C@]12C` [Compound 17, (8S,9S,10R,13S,14S,17S)-10,13-dimethyl-17-((E)-1-(4-((4-methylpiperazin-1-yl)methyl)benzoyloxyimino)ethyl)-6,7,8,9,10,11,12,13,14,15,16,17-dodecahydro-1H-cyclopenta[a]phenanthren-3(2H)-one], the solubility at 90 min in “physchem” (pH 4, aqueous buffer) is under 30 µM; in “physchem” (pH 7, aqueous buffer), under 30 µM.

Take `C/C(=N\OC(=O)C1CCNCC1)[C@H]1CC[C@H]2[C@@H]3CCC4=CC(=O)CC[C@]4(C)[C@H]3CC[C@]12C.Cl` [Compound 18, (8S,9S,10R,13S,14S,17S)-10,13-Dimethyl-17-((E)-1-(piperidine-4-carbonyloxyimino)ethyl)-6,7,8,9,10,11,12,13,14,15,16,17-dodecahydro-1H-cyclopenta[a]phenanthren-3(2H)-one hydrochloride]: in the data set on Primary cortical cells, the inhibition at 5 µM was 4%, the “dose at maximum efficacy” value was determined as 10 µM and the Emax was 24%. This compound also returned a solubility at 90 min in “physchem” (pH 4, aqueous buffer) of 247 µM. Moreover, the solubility at 90 min in the data set “physchem” (pH 7, aqueous buffer) was determined as 247 µM.

Take `C/C(=N\OC(=O)C1CCN(C)CC1)[C@H]1CC[C@H]2[C@@H]3CCC4=CC(=O)CC[C@]4(C)[C@H]3CC[C@]12C` [Compound 19, (8S,9S,10R,13S,14S,17S)-10,13-Dimethyl-17-((E)-1-(1-methylpiperidine-4-carbonyloxyimino)ethyl)-6,7,8,9,10,11,12,13,14,15,16,17-dodecahydro-1H-cyclopenta[a]phenanthren-3(2H)-one]: the solubility at 90 min in “physchem” (pH 4, aqueous buffer) is over 660 µM; in “physchem” (pH 7, aqueous buffer), 108 µM (≈ 49.1 µg/mL).

In the case of `C/C(=N\OC(=O)C1CC[N+](C)(C)CC1)[C@H]1CC[C@H]2[C@@H]3CCC4=CC(=O)CC[C@]4(C)[C@H]3CC[C@]12C.[I-]` [Compound 20, (8S,9S,10R,13S,14S,17S)-10,13-Dimethyl-17-((E)-1-(1,1-dimethylpiperidine-4-carbonyloxyimino)ethyl)-6,7,8,9,10,11,12,13,14,15,16,17-dodecahydro-1H-cyclopenta[a]phenanthren-3(2H)-one iodide], in the data set with Primary cortical cells, the inhibition at 5 µM came out at 0%, the “dose at maximum efficacy” value is 5 µM and the Emax came to 0%. In the data set “physchem” (pH 4, aqueous buffer), the solubility at 90 min is over 500 µM. In addition, the solubility at 90 min in “physchem” (pH 7, aqueous buffer) is over 500 µM.

Regarding `C/C(=N\OC(=O)[C@@H]1CCCNC1)[C@H]1CC[C@H]2[C@@H]3CCC4=CC(=O)CC[C@]4(C)[C@H]3CC[C@]12C.Cl` [Compound 21, (8S,9S,10R,13S,14S,17S)-10,13-dimethyl-17-((E)-1-((R)-piperidine-3-carbonyloxyimino)ethyl)-6,7,8,9,10,11,12,13,14,15,16,17-dodecahydro-1H-cyclopenta[a]phenanthren-3 (2H)-one hydrochloride], the solubility at 90 min in “physchem” (pH 4, aqueous buffer) was over 500 µM; in the data set “physchem” (pH 7, aqueous buffer), 428 µM.

For `C/C(=N\OC(=O)[C@H]1CCCNC1)[C@H]1CC[C@H]2[C@@H]3CCC4=CC(=O)CC[C@]4(C)[C@H]3CC[C@]12C.Cl` [Compound 22, (8S,9S,10R,13S,14S,17S)-10,13-Dimethyl-17-((E)-1-((S)-piperidine-3-carbonyloxyimino)ethyl)-6,7,8,9,10,11,12,13,14,15,16,17-dodecahydro-1H-cyclopenta[a]phenanthren-3(2H)-one hydrochloride], the solubility at 90 min turned out to be 314 µM in “physchem” (pH 4, aqueous buffer) and 314 µM in “physchem” (pH 7, aqueous buffer).
